# In patent US12421229B2, “Hydropyrido[1,2-α]pyrazine compounds for the treatment of autoimmune disease” (Hoffmann-La Roche Inc., priority 2019, dated 2025):
# Target: T1, human TLR7 (Homo sapiens, UniProt Q9NYK1)
# T1 construct: host or cells: HEK293 (HEK-Blue hTLR7)
# T1 sequence (Q9NYK1 27-1049): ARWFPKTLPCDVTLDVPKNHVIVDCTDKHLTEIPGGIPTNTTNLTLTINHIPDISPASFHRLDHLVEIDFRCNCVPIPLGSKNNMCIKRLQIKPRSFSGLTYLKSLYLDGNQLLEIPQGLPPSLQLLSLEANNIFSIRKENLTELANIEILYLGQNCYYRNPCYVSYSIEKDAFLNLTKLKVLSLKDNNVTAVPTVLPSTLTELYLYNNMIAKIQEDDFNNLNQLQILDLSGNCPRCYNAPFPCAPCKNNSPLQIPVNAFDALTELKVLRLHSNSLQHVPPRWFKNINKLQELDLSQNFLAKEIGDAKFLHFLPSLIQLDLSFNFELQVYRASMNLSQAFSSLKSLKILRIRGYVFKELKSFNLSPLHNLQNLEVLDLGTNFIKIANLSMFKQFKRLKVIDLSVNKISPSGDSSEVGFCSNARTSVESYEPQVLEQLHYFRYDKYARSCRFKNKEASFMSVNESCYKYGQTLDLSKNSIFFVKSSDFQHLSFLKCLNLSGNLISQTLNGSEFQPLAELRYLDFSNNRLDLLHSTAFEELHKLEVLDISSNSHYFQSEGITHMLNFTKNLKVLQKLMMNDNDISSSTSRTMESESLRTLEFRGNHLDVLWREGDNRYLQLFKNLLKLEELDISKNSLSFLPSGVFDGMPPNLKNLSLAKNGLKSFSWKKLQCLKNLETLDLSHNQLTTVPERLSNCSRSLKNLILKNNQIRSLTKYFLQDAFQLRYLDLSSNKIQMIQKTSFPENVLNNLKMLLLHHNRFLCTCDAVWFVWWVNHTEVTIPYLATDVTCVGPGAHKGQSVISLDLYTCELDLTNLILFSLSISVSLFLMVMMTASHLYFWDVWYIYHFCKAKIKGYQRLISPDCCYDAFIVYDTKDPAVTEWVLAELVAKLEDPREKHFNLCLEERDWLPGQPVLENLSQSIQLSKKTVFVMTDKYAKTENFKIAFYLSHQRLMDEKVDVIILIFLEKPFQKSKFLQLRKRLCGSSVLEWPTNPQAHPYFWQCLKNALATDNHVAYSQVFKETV
# Experiment: HEK293-Blue-hTLR-7 cells assay
# Assay type: cell-based
# Conditions: HEK293-Blue-hTLR7 cells, R848 stimulation, 20 hrs, SEAP reporter; read-out: HEK/hTLR7 IC50
# Description: A stable HEK293-Blue-hTLR-7 cell line was purchased from InvivoGen (Cat. #: hkb-htlr7, San Diego, California, USA). These cells were originally designed for studying the stimulation of human TLR7 by monitoring the activation of NF-κB. A SEAP (secreted embryonic alkaline phosphatase) reporter gene was placed under the control of the IFN-β minimal promoter fused to five NF-κB and AP-1-binding sites. The SEAP was induced by activating NF-κB and AP-1 via stimulating HEK-Blue hTLR7 cells with TLR7 ligands. Therefore the reporter expression was declined by TLR7 antagonist under the stimulation of a ligand, such as R848 (Resiquimod), for incubation of 20 hrs. The cell culture supernatant SEAP reporter activity was determined using QUANTI-Blue™ kit (Cat. #: rep-qb1, Invivogen, San Diego, Ca, USA) at a wavelength of 640 nm, a detection medium that turns purple or blue in the presence of alkaline phosphatase.
# HEK293-Blue-hTLR7 cells were incubated at a density of 250,000˜450,000 cells/mL in a volume of 170 μL in a 96-well plate in Dulbecco's Modified Eagle's medium (DMEM) containing 4.5 g/L glucose, 50 U/mL penicillin, […], […], 2 mM L-glutamine, 10% (v/v) heat-inactivated fetal bovine serum with addition of 20 μL test compound in a serial dilution in the presence of final DMSO at 1% and 10 μL of 20 uM R848 in above DMEM, perform incubation under 37° C. in a CO2 incubator for 20 hrs. Then 20 μL of the supernatant from each well was incubated with 180 μL Quanti-blue substrate solution at 37° C. for 2 hrs and the absorbance was read at 620˜655 nm using a spectrophotometer. The signaling pathway that TLR7 activation leads to downstream NF-κB activation has been widely accepted, and therefore similar reporter assay was modified for evaluating TLR7 antagonist.
row,Compound,IC50 [nM]
1,"C[C@@H]1CN(c2ccc(C#N)c3ncccc23)C[C@@H]2C[C@H](Nc3ccc([C@H]4CNCCO4)cc3)CCN21 [Example 20, 5-[(4R,8R,9aS)-4-methyl-8-[4-[(2S)-morpholin-2-yl]anilino]-1,3,4,6,7,8,9,9a-octahydropyrido[1,2-a]pyrazin-2-yl]quinoline-8-carbonitrile]",13
2,"C[C@@H]1CN(c2ccc(C#N)c3ncccc23)C[C@@H]2C[C@H](c3ccc(N4CCOC[C@@H](N)C4)nc3)CCN21 [Example 23, 5-[(4R,8R,9aS)-8[6-[(6S)-6-amino-1,4-oxazepan-4-yl]-3-pyridyl]-4-methyl-1,3,4,6,7,8,9,9a-octahydropyrido[1,2-a]pyrazin-2-yl]quinoline-8-carbonitrile]",21
3,"CO[C@H]1CN(c2ccc([C@@H]3CCN4[C@@H](C3)CN(c3ccc(C#N)c5ncccc35)C[C@H]4C)cn2)C[C@@H]1N [Example 6, 5-[(4R,8R,9aS)-8-[6-[(3S,4S)-3-amino-4-methoxy-pyrrolidin-1-yl]-3-pyridyl]-4-methyl-1,3,4,6,7,8,9,9a-octahydropyrido[1,2-a]pyrazin-2-yl]quinoline-8-carbonitrile]",41
4,"C[C@@H]1CN(c2ccc(C#N)c3ncccc23)C[C@@H]2C[C@H](c3ccc(N4CCNCC4)nc3)CCN21 [Example 4, 5-[(4R,8R,9aS)-4-methyl-8-(6-piperazin-1-yl-3-pyridyl)-1,3,4,6,7,8,9,9a-octahydropyrido[1,2-a]pyrazin-2-yl]quinoline-8-carbonitrile]",6
5,"C[C@@H]1CN(c2ccc(C#N)c3ncccc23)C[C@@H]2C[C@@H](Oc3cncc(N4CCNCC4)c3)CCN21 [Example 29, 5-[(4R,8S,9aS)-4-methyl-8-[(5-piperazin-1-yl-3-pyridyl)oxy]-1,3,4,6,7,8,9,9a-octahydropyrido[1,2-a]pyrazin-2-yl]quinoline-8-carbonitrile]",49
6,"C[C@@H]1CN(c2ccc(C#N)c3ncccc23)C[C@@H]2C[C@@H](Oc3ccc(N4CCNCC4)nc3)CCN21 [Example 16, 5-[(4R,8S,9aS)-4-methyl-8-[(6-piperazin-1-yl-3-pyridyl)oxy]-1,3,4,6,7,8,9,9a-octahydropyrido[1,2-a]pyrazin-2-yl]quinoline-8-carbonitrile]",35
7,"CO[C@H]1CN(c2ccc([C@@H]3CCN4[C@@H](C3)CN(c3ccc(C#N)c5ncccc35)C[C@H]4C)cn2)C[C@H]1N [Example 12, 5-[(4R,8R,9aS)-8-[6-[(3R,4S)-3-amino-4-methoxy-pyrrolidin-1-yl]-3-pyridyl]-4-methyl-1,3,4,6,7,8,9,9a-octahydropyrido[1,2-a]pyrazin-2-yl]quinoline-8-carbonitrile]",17
8,"C[C@@H]1CN(c2ccc(C#N)c3ncccc23)C[C@@H]2C[C@H](c3ccc(N4C[C@@H](N)[C@@H](F)C4)nc3)CCN21 [Example 19, 5-[(4R,8R,9aS)-8-[6-[(3R,4S)-3-amino-4-fluoro-pyrrolidin-1-yl]-3-pyridyl]-4-methyl-1,3,4,6,7,8,9,9a-octahydropyrido[1,2-a]pyrazin-2-yl]quinoline-8-carbonitrile]",15
9,"C[C@@H]1CN(c2ccc(C#N)c3ncccc23)C[C@@H]2C[C@H](c3ccc(N4CCNCC4)nc3)CCN21 (stereo in doubt) [Example 2, 5-[(4R,8R)-4-methyl-8-(6-piperazin-1-yl-3-pyridyl)-1,3,4,6,7,8,9,9a-octahydropyrido[1,2-a]pyrazin-2-yl]quinoline-8-carbonitrile]",4

# More lines, in order of falling IC50, values ahead:
row,IC50 [nM],Compound
1,46,"C[C@@H]1CN(c2ccc(C#N)c3ncccc23)C[C@@H]2C[C@@H](Oc3ccc(N4CCNCC4)cn3)CCN21 [Example 11, 5-[(4R,8S,9aS)-4-methyl-8-[(5-piperazin-1-yl-2-pyridyl)oxy]-1,3,4,6,7,8,9,9a-octahydropyrido[1,2-a]pyrazin-2-yl]quinoline-8-carbonitrile]"
2,44,"[2H]c1ccc2c(N3C[C@@H]4C[C@H](Nc5ccc(C[C@@H]6CNCCO6)cc5)CCN4[C@H](C)C3)ccc(C#N)c2n1 [Example 22, 5-[(4R,8R,9aS)-4-methyl-8-[4-[[(2R)-morpholin-2-yl]methyl]anilino]-1,3,4,6,7,8,9,9a-octahydropyrido[1,2-a]pyrazin-2-yl]-2-deuterio-quinoline-8-carbonitrile]"
3,41,"CO[C@@H]1CN(c2ccc(C3CN([C@@H]4CCN5[C@@H](C4)CN(c4ccc(C#N)c6ncccc46)C[C@H]5C)C3)cc2)C[C@H]1N [Example 30, 5-[(4R,8R,9aS)-8-[3-[4-[(3R,4R)-3-amino-4-methoxy-pyrrolidin-1-yl]phenyl]azetidin-1-yl]-4-methyl-1,3,4,6,7,8,9,9a-octahydropyrido[1,2-a]pyrazin-2-yl]quinoline-8-carbonitrile]"
4,35,"C[C@@H]1CN(c2ccc(C#N)c3ncccc23)C[C@@H]2C[C@@H](NCc3ccc(N4CCNCC4)cc3)CCN21 [Example 17, 5-[(4R,8S,9aS)-4-methyl-8-[(4-piperazin-1-ylphenyl)methylamino]-1,3,4,6,7,8,9,9a-octahydropyrido[1,2-a]pyrazin-2-yl]quinoline-8-carbonitrile]"
5,30,"C[C@@H]1CN(c2ccc(C#N)c3ncccc23)C[C@@H]2C[C@@H](c3ccc(CC4CNCCO4)cc3)CCN21 (stereo partly drawn) [Example 26, 5-[(4R,8S,9aS)-4-methyl-8-[4-(morpholin-2-ylmethyl)phenyl]-1,3,4,6,7,8,9,9a-octahydropyrido[1,2-a]pyrazin-2-yl]quinoline-8-carbonitrile]"
6,24,"C[C@@H]1CN(c2ccc(C#N)c3ncccc23)C[C@H]2C[C@H](c3ccc(N4CCNCC4)nc3)CCN21 [Example 15, 5-[(4R,8R,9aR)-4-methyl-8-(6-piperazin-1-yl-3-pyridyl)-1,3,4,6,7,8,9,9a-octahydropyrido[1,2-a]pyrazin-2-yl]quinoline-8-carbonitrile]"
7,21,"CO[C@@H]1CN(c2ccc([C@@H]3CCN4[C@@H](C3)CN(c3ccc(C#N)c5ncccc35)C[C@H]4C)cn2)C[C@@H]1N [Example 13, 5-[(4R,8R,9aS)-8-[6-[(3S,4R)-3-amino-4-methoxy-pyrrolidin-1-yl]-3-pyridyl]-4-methyl-1,3,4,6,7,8,9,9a-octahydropyrido[1,2-a]pyrazin-2-yl]quinoline-8-carbonitrile]"
8,21,"C[C@@H]1CN(c2ccc(C#N)c3ncccc23)C[C@@H]2C[C@@H](Oc3cnc(N4CCNCC4)nc3)CCN21 [Example 18, 5-[(4R,8S,9aS)-4-methyl-8-(2-piperazin-1-ylpyrimidin-5-yl)oxy-1,3,4,6,7,8,9,9a-octahydropyrido[1,2-a]pyrazin-2-yl]quinoline-8-carbonitrile]"
9,8,"C[C@@H]1CN(c2ccc(C#N)c3ncccc23)C[C@@H]2CC(c3ccc(C[C@@H]4CNCCO4)cc3)CCN21 (stereo in doubt) [Example 25, 5-[(4R,8R,9aS)-4-methyl-8-[4-[[(2R)-morpholin-2-yl]methyl]phenyl]-1,3,4,6,7,8,9,9a-octahydropyrido[1,2-a]pyrazin-2-yl]quinoline-8-carbonitrile]"
10,4,"C[C@@H]1CN(c2ccc(C#N)c3ncccc23)C[C@@H]2C[C@H](c3ccc([C@@H]4CNCCO4)cc3)CCN21 [Example 27, 5-[(4R,8R,9aS)-4-methyl-8-[4-[(2R)-morpholin-2-yl]phenyl]-1,3,4,6,7,8,9,9a-octahydropyrido[1,2-a]pyrazin-2-yl]quinoline-8-carbonitrile]"
